These results are taken from PubChem BioAssay AID1259407 (Chemical Carcinogenesis Research Information System (CCRIS), 2018).

Active and inactive are the calls of the source. How the calls were made is not given here.

The test system of the data set is CCRIS mutagenicity, Ames/micronucleus/aberration tests. Description: CCRIS mutagenicity studies.
Where [1] appears, read: Test System: AMES SALMONELLA TYPHIMURIUM, Strain/Indicator: TA98, Metabolic Activation: NONE, Method: STANDARD PLATE.
Where [2] appears, read: Test System: AMES SALMONELLA TYPHIMURIUM, Strain/Indicator: TA98, Metabolic Activation: RAT, LIVER, S-9, AROCLOR 1254, Method: STANDARD PLATE.
Where [3] appears, read: Test System: AMES SALMONELLA TYPHIMURIUM, Strain/Indicator: TA100, Metabolic Activation: NONE, Method: STANDARD PLATE.
[4] abbreviates: Test System: AMES SALMONELLA TYPHIMURIUM, Strain/Indicator: TA100, Metabolic Activation: RAT, LIVER, S-9, AROCLOR 1254, Method: STANDARD PLATE.
The mark [5] stands for this setting: Test System: AMES SALMONELLA TYPHIMURIUM, Strain/Indicator: TA1535, Metabolic Activation: NONE, Method: STANDARD PLATE.
Setting [6] is: Test System: AMES SALMONELLA TYPHIMURIUM, Strain/Indicator: TA98, Metabolic Activation: RAT, LIVER, S-9, PHENOBARBITAL, Method: STANDARD PLATE.
Where [7] appears, read: Test System: AMES SALMONELLA TYPHIMURIUM, Strain/Indicator: TA98, Metabolic Activation: NONE, Method: PREINCUBATION
[8] abbreviates: Test System: AMES SALMONELLA TYPHIMURIUM, Strain/Indicator: TA100, Metabolic Activation: NONE, Method: PREINCUBATION
Where [9] appears, read: Test System: AMES SALMONELLA TYPHIMURIUM, Strain/Indicator: TA100, Metabolic Activation: S-9, Method: STANDARD PLATE.

As for `COc1cc(-c2oc3cc(O)cc(O)c3c(=O)c2O)ccc1O`, the mutagenic call runs as follows: (Test System: AMES SALMONELLA TYPHIMURIUM, Strain/Indicator: TA97, Metabolic Activation: NONE, Method: STANDARD PLATE) “inactive; negative”; (Test System: AMES SALMONELLA TYPHIMURIUM, Strain/Indicator: TA97, Metabolic Activation: RAT, LIVER, S-9, AROCLOR 1254, Method: STANDARD PLATE) “inactive; negative”; under setting [1], “inactive; negative”; under setting [2], “inactive; negative”; under setting [3], “inactive; negative”; under setting [4], “inactive; negative”. For the same compound, the mutagenic call was “inactive; negative” (Test System: AMES SALMONELLA TYPHIMURIUM, Strain/Indicator: TA102, Metabolic Activation: NONE, Method: STANDARD PLATE); “inactive; negative” (Test System: AMES SALMONELLA TYPHIMURIUM, Strain/Indicator: TA102, Metabolic Activation: RAT, LIVER, S-9, AROCLOR 1254, Method: STANDARD PLATE); “inactive; negative” under setting [5]; “inactive; negative” (Test System: AMES SALMONELLA TYPHIMURIUM, Strain/Indicator: TA1535, Metabolic Activation: RAT, LIVER, S-9, AROCLOR 1254, Method: STANDARD PLATE); “inactive; negative” (Test System: AMES SALMONELLA TYPHIMURIUM, Strain/Indicator: TA1538, Metabolic Activation: NONE, Method: STANDARD PLATE); “inactive; negative” (Test System: AMES SALMONELLA TYPHIMURIUM, Strain/Indicator: TA1538, Metabolic Activation: RAT, LIVER, S-9, AROCLOR 1254, Method: STANDARD PLATE).
`CC(=O)OC1Cc2cc3cccc4ccc5ccc1c2c5c43` (stereo not given): the mutagenic call is “active; positive” under setting [1] and “active; positive” under setting [3].
As to `OCc1c[nH]c2ccccc12`, the mutagenic call is “inactive; negative” (Test System: Ames Salmonella typhimurium, Strain/Indicator: TA98, Metabolic Activation: None, Method: Plate incorporation); “inactive; negative” (Test System: Ames Salmonella typhimurium, Strain/Indicator: TA98, Metabolic Activation: None, Method: Preincubation); “inactive; negative” (Test System: Ames Salmonella typhimurium, Strain/Indicator: TA98, Metabolic Activation: Rat, Liver, S-9, Aroclor 1254, Method: Plate incorporation); “inactive; negative” (Test System: Ames Salmonella typhimurium, Strain/Indicator: TA98, Metabolic Activation: Rat, Liver, S-9, Aroclor 1254, Method: Preincubation); “active; positive. reevaluation of results: positive” (Test System: MOUSE LYMPHOMA, Strain/Indicator: L5178Y (TK+/TK-), Metabolic Activation: NONE, Method: SUSPENSION/PLATE); “active; positive. reevaluation of results: positive” (Test System: MOUSE LYMPHOMA, Strain/Indicator: L5178Y (TK+/TK-), Metabolic Activation: RAT, LIVER, S-9, AROCLOR 1254, Method: SUSPENSION/PLATE).
Take `O=c1ccc2cc3ccoc3cc2o1`: the mutagenic call under setting [1] was “inactive; negative”; the mutagenic call under setting [2] is “inactive; negative”; the mutagenic call under setting [6] is “inactive; negative”; the mutagenic call under setting [3] was “inactive; negative”; the mutagenic call under setting [4] is “inactive; negative”.
Turning to `CCOC(=O)[C@H]1O[C@@H]1C(=O)N[C@@H](CC(C)C)C(=O)NCCC(C)C`, the mutagenic call reads like this: under setting [7], “inactive; negative”; under setting [1], “inactive; negative”; (Test System: AMES SALMONELLA TYPHIMURIUM, Strain/Indicator: TA98, Metabolic Activation: RAT, LIVER, S-9, Method: PREINCUBATION) “inactive; negative”; (Test System: AMES SALMONELLA TYPHIMURIUM, Strain/Indicator: TA98, Metabolic Activation: RAT, LIVER, S-9, Method: STANDARD PLATE) “inactive; negative”; under setting [8], “inactive; negative”; under setting [3], “inactive; negative”. Further, the mutagenic call was “inactive; negative” (Test System: AMES SALMONELLA TYPHIMURIUM, Strain/Indicator: TA100, Metabolic Activation: RAT, LIVER, S-9, Method: PREINCUBATION); “inactive; negative” (Test System: AMES SALMONELLA TYPHIMURIUM, Strain/Indicator: TA100, Metabolic Activation: RAT, LIVER, S-9, Method: STANDARD PLATE); “inactive; negative” under setting [5]; “inactive; negative” (Test System: AMES SALMONELLA TYPHIMURIUM, Strain/Indicator: TA1535, Metabolic Activation: RAT, LIVER, S-9, Method: STANDARD PLATE); “inactive; negative” (Test System: AMES SALMONELLA TYPHIMURIUM, Strain/Indicator: TA1537, Metabolic Activation: NONE, Method: STANDARD PLATE); “inactive; negative” (Test System: AMES SALMONELLA TYPHIMURIUM, Strain/Indicator: TA1537, Metabolic Activation: RAT, LIVER, S-9, Method: STANDARD PLATE). In addition, the mutagenic call (Test System: E. COLI, Strain/Indicator: WP2 UVRA, Metabolic Activation: NONE, Method: STANDARD PLATE) is “inactive; negative” and the mutagenic call (Test System: E. COLI, Strain/Indicator: WP2 UVRA, Metabolic Activation: RAT, LIVER, S-9, Method: STANDARD PLATE) is “inactive; negative”.
As to `O=C(N=c1sn(C(=O)c2ccc([N+](=O)[O-])cc2)c2ccccc12)c1ccc([N+](=O)[O-])cc1`, the mutagenic call under setting [9] is “active; positive”.
For `Cc1nc2ccc3c(nc(N)n3C)c2nc1C`, the mutagenic call under setting [2] was “active; positive”.
Regarding `O=S(=O)(O)OCc1c2ccccc2c2ccc3cccc4ccc1c2c43`, the mutagenic call was “active; positive” under setting [7]; “active; positive” under setting [1]; “active; positive” under setting [8]; “active; positive” (Test System: CHINESE HAMSTER V-79, Strain/Indicator: V-79 (HGPRT)/6-THIOGUANINE, Metabolic Activation: NONE); “active; positive” (Test System: CHINESE HAMSTER V-79, Strain/Indicator: V-79 (NA/K-ATPASE)/OUABAIN, Metabolic Activation: NONE).
For `O=C(CBr)NCc1ccccc1`, the mutagenic call (Test System: AMES SALMONELLA TYPHIMURIUM, Strain/Indicator: TA100, Metabolic Activation: MOUSE, LIVER, S-9, AROCLOR 1254, Method: STANDARD PLATE) is “active; positive” and the mutagenic call under setting [3] was “inactive; negative”.
As for `Nc1ccc(I)cc1`, where the note is “End Point: IN VITRO MICRONUCLEUS, Test System: CHL/IU CELLS, Metabolic Activation: RAT, LIVER, S-9, PHENOBARBITAL AND 5,6-BENZOFLAVONE”, the mutagenic call is “inactive; negative”.
For `CCN=NC(C)(C)OO`, the mutagenic call was “inactive; negative” (Test System: AMES SALMONELLA TYPHIMURIUM, Strain/Indicator: TA1535, Metabolic Activation: NONE) and “active; positive” (Test System: E. COLI, Strain/Indicator: WP2 (HCR-), Metabolic Activation: NONE).
Take `CCOC(=O)N(CCCC(=O)c1cccnc1)N=O`: under setting [8], the mutagenic call was “active; positive”.
Consider `O=c1c2c(O)cccc2oc2c3c(cc(O)c12)O[C@H]1OCC[C@@H]31`, for which the mutagenic call under setting [6] is “inactive; negative” and the mutagenic call (Test System: AMES SALMONELLA TYPHIMURIUM, Strain/Indicator: TA100, Metabolic Activation: RAT, LIVER, S-9, PHENOBARBITAL, Method: STANDARD PLATE) was “inactive; negative”.
Take `COc1nsc2ccc(N)cc12`: the mutagenic call under setting [9] is “active; positive”.
